Laboratory results reported in US10131671B2, “Organic compounds” (Intra-Cellular Therapies, Inc., priority 2014, dated 2018).

Legend:
[1] = Pharmacokinetic analysis in mice: plasma and brain levels after oral dose; type: in vivo, C57BL/6 mice; details: male, C57BL/6, mouse, 10 mg/kg, 10 mg/kg PO, Brain AUC(0-2h)/Plasma AUC(0-2h) or Brain Cmax/Plasma Cmax, read-out: ratio of brain/plasma concentration (B/P)
Protocol: Animals: Male, C57BL/6 mice (Jackson Labs, 25-30 g in body weight) are provided by Jackson Laboratories. Up to five mice are housed per cage and are maintained under a 12 hour light/dark cycle with access to food and water ad libitum. All procedures for the handling and use of animals follow the guidelines of the Institutional Animal Care and Use Committee (IACUC) of Columbia University, in accordance with NIH guidelines. Eight week-old mice (N=3/dose level or treatment group) are used in the experiments.
Experimental Treatment: Compounds: Selected Compounds of the Invention are evaluated in the present study. Formulation/Vehicle: 3% 1N HCl, 5% Labrasol and 92% of 5% TPGS in 0.05M Citrate buffer (CB, pH 4.0). The test compound(s) are prepared as solution in vehicle and are dosed in a volume of 8 ml/kg.
Compound Preparation: Powdered stocks of the test compound(s) are measured and dissolved in 3% 1N HCl, 5% Labrasol and 92% of 5% TPGS in 0.05M Citrate buffer (CB, pH 4.0). Two or three layers of 3 mm glass beads are added to the bottom of the 10 ml glass tube to promote mixing. […]
Treatment of Animals: Mice (N=3 mice/dose/time point) receive a 10 mg/kg oral (PO) dose of the test compound(s) at time 0. […] Plasma and brain tissue samples are processed and analyzed by the analytical group using LC-MS/MS methods, as described below. […]
Each tube is vortexed, then centrifuged for 20 min at 15000 rpm using a Tomy benchtop centrifuge at 4° C. Standard is an internal standard used for LC-MS/MS quantitation. […]
HPLC and Mass Spectrometric Analysis: Analysis to quantify the concentration of each compound in plasma and brain homogenate is carried out using reverse phase HPLC followed by mass spectrometric detection using the parameters listed:
Each compound is detected and quantified using Multiple Reaction Monitoring (MRM) of positive electrospray mode with a Waters QuattroMicro™ mass spectrometry system.
RESULTS: Plasma and Brain Analysis: All the test compound(s) tested could be detected and analyzed when spiked into control plasma. […]

[2] = tested on: isoproterenol-induced cardiac hypertrophy; assay: Isoproterenol induced cardiac hypertrophy mouse model; type: in vivo, 129S1/SvlmJ mice; details: for HW/TL Ratio (mean): isoproterenol 10 mg/kg s.c. days 4-9, heart weight/tibia length on day 10
Protocol: The compound of Example 2 is tested in a mouse model where the mice are treated with isoproterenol. Such a model can be useful for extrapolating to diseases or disorders involving an enlargement of the heart or cardiac tissue, e.g., congestive heart disease. Animals: 129S1/SvlmJ mice, 20-40 grams, Jackson Laboratories (Bar Harbor, Me.). Test Compound of Example 2: Test compound of Example 2 is supplied as a powder. The test article dosing solutions are prepared on the day of administration by dissolving the test compound in the vehicle (0.9% sodium chloride for injection, U.S.P.) at concentration of 2.0 mg/mL stock/dosing solution. The compound are agitated with a vortex mixer and sonicated to ensure the compound is in solution. The 2.0 mg/mL solution is diluted with vehicle to create the 0.2 mg/mL and the 0.6 mg/mL dosing solutions. Dosing solutions are stored in a refrigerator between the daily doses and are allowed to return to room temperature before the evening dose. Test Compound Isoproterenol: Test compound isoproterenol is supplied by Sigma (St. Louis, Mo.) as a powder. The test article dosing solutions are prepared on the day of administration by dissolving the test compound in the vehicle (0.9% sodium chloride for injection, U.S.P.) at concentration of 2.0 mg/mL. The compound is agitated with a vortex mixer and sonicated to ensure the compound is in solution. [table] Mice in group 1 and 2 are dosed daily via subcutaneous administration. On days 7, 10 and 14, 2 animals from groups 1 and 2 are weighed and then euthanized via CO2 asphyxiation. Hearts are harvested and gently infused with ice cold saline until clear. The entire heart is weighed. The atria are removed and the left ventricle (with septum) is separated from the right ventricle. The ventricles are weighed separately. The left tibia is removed and separated from the soft tissue. Longitudinal measurement are obtained with a digital micrometer. Mice in groups 3-6 are dosed once/day with isoproterenol subcutaneously from Days 4-9 and twice/day with vehicle or test compound via intraperitoneal administration from Days 1 to 9. On Day 10 (based on the results from Groups 1 and 2) animals from each group are weighed and then euthanized via CO2 asphyxiation. Hearts are harvested and gently infused with ice cold krebs-henseleit buffer (Sigma 3753) until clear. The entire heart is weighed. The atria are removed and the left ventricle (with septum) is separated from the right ventricle. The ventricles are weighed separately. The ventricles are stored in ice cold krebs-henseleit buffer for approximately 15 minutes and then transferred to 10% buffered formalin at room temperature until possible shipment for possible future analysis. The left tibia is removed and separated from the soft tissue. Longitudinal measurement is obtained with a digital micrometer.

TAC-induced hypertrophy = assay: Transverse aortic constriction (TAC) mouse model of cardiac hypertrophy; type: in vivo, C59Bl/6 mice; details: for Terminal LV + S/TL Ratio (mean) (TAC ratio): day 1-28 post-surgery, left ventricle+septum weight/tibia length
Protocol: Animals: C59Bl/6 mice, 20-40 grams, Charles River (Portage, Mich.).
Test Compound of Example 2: Test compound of Example 2 is formulated. The test article dosing solutions are prepared by titrating the free base with 1 mole/mole dilute (0.02N) HCl and diluting the dissolved test compound in the vehicle (0.5% methylcellulose in distilled water) to a final concentration of 0.45 mg/mL and 1.5 mg/mL dosing solution. A supply of formulation for thirty days of dosing are prepared (day 1-6 for 1st surgical cohort).
Reference Test Compound—Losartan potassium: Losartan is obtained by CorDynamics, and prepared on the day of administration by dissolving in the vehicle (0.5% methylcellulose in distilled water) at concentration of 4.5 mg/mL dosing solution. The compound is agitated with a vortex mixer and sonicated to ensure the compound is in solution.
Transverse Aortic Constriction Surgery: Animals are anesthetized with isoflurane using a nose cone connected to a vaporizer that delivers 1-2% isoflurane driven by 100% oxygen. After initial anesthesia with isoflurane, mice receive 1 mg/kg Buprenex SR (1 mg/mL, s.c.) and 10 mg/kg of etomidate (2 mg/mL, i.p.). Animals are intubated for mechanical ventilation. The endotracheal tube is connected to a mechanical ventilator that provides positive-pressure ventilation with 1-2% isoflurane remainder oxygen, set to maintain ˜120 breaths/min with a tidal volume of ˜200 μL. Body temperature is monitored throughout the experiment.
A sternotomy is performed from the manubrium through the second or third rib in order to expose the aorta in the thoracic cavity. The aorta is cleaned of surrounding tissue and the transverse aorta clamped with a titanium microclip, the diameter similar to a 27 G needle. The transverse aorta from mice in Group 1 is cleaned of surrounding tissue but not clamped. The incision is closed, endotracheal tube is removed and animal is allowed to recover.
Mice are dosed twice daily with vehicle or the compound of Example 2 via oral administration with approximately 6 hours between each dose beginning at 1 day post-surgery. Mice are dosed once daily with losartan via oral administration. Body weights are taken after arrival, prior to surgery, prior to dosing on the first day of dosing and every third day of dosing for dose calculation purposes.
On day 28, echocardiographic measurements are performed for all experimental groups. Animals are anesthetized with isoflurane using a nose cone connected to a vaporizer that delivers 1-2% isoflurane driven by 100% oxygen. Mice are placed in the dorsal decubitus position on a warming platform to maintain body temperature at 37±0.5° C. Heart rate is monitored throughout the experiment. Transthoracic two-dimensional, B-mode, M-mode and pulsed Doppler images are acquired with a high-resolution echocardiographic system (VeVo 770, Visual Sonics, Toronto, ON, Canada) equipped with a 30-MHz mechanical transducer.
After echocardiographic measurements, animals are euthanized via CO2 asphyxiation. Hearts and lungs are harvested and gently infused with ice cold krebs-henseleit buffer (Sigma 3753) until clear. Lungs are weighed and the right and left lung are separated. The right and left lung are immediately frozen in liquid nitrogen and placed into separate tubes. The entire heart is weighed. The atria are removed and the left ventricle (with septum) is separated from the right ventricle. The ventricles are weighed separately before being divided into two pieces. Ventricle pieces are frozen in liquid nitrogen and placed into separate tubes. Liquid nitrogen samples are stored in a freezer set to maintain approximately −80° C. until shipped on dry ice to the Sponsor for possible future analysis.
The left tibia is removed and separated from the soft tissue. Longitudinal measurement will be obtained with a digital micrometer. The dissected tibia is disposed of with the rest of the carcass.

CN1C(=O)c2c(nn(Cc3ccc(C(F)(F)F)cc3)c2Nc2ccccc2)N2C1=N[C@@H]1CCC[C@@H]12 [(6aR,9aS)-3-(phenylamino)-5,6a,7,8,9,9a-hexahydro-5-methyl-2-(4-(trifluoromethyl)-benzyl)-cyclopent[4,5]imidazo[1,2-a]pyrazolo[4,3-e]pyrimidin-4(2H)-one, reference compound]
Kp [1]: 4.5 to 4.8

CN1C(=O)c2c(nn(Cc3ccncc3)c2Nc2ccc(F)cc2)N2CC(C)(C)N=C12 [Example 1, 3-((4-fluorophenyl)amino)-5,7,7-trimethyl-2-(pyridin-4-ylmethyl)-7,8-dihydro-2H-imidazo[1,2-a]pyrazolo[4,3-e]pyrimidin-4(5H)-one]
Kp [1]: ≤ 0.1

Cc1ncc(Cn2nc3c(c2Nc2ccc(F)cc2)C(=O)N(C)C2=NC(C)(C)CN23)cn1 [Example 2, 3-((4-fluorophenyl)amino)-5,7,7-trimethyl-2-((2-methylpyrimidin-5-yl)methyl)-7,8-dihydro-2H-imidazo[1,2-a]pyrazolo[4,3-e]pyrimidin-4(5H)-one]
reduction in the heart weight/tibia length (HW/TL) ratio compared to vehicle ([2]; 1 mg/kg): ~8%
HW/TL Ratio (mean) ([2]; 1 mg/kg twice/day days 1-9): 8.49 mg/mm
decrease of (LV+RV)/TL ratio (left ventricle plus right ventricle weight/tibia length) compared to vehicle ([2]; 3 mg/kg): 10%
prevention of cardiac hypertrophy ([2]; 3 mg/kg): significantly prevents cardiac hypertrophy
reduction in the heart weight/tibia length (HW/TL) ratio compared to vehicle ([2]; 3 mg/kg): ~12.5%
HW/TL Ratio (mean) ([2]; 3 mg/kg twice/day days 1-9): 8.08 mg/mm
decrease of (LV+RV)/TL ratio (left ventricle plus right ventricle weight/tibia length) compared to vehicle ([2]; 10 mg/kg): 10%
prevention of cardiac hypertrophy ([2]; 10 mg/kg): significantly prevents cardiac hypertrophy
reduction in the heart weight/tibia length (HW/TL) ratio compared to vehicle ([2]; 10 mg/kg): ~12.5%
HW/TL Ratio (mean) ([2]; 10 mg/kg twice/day days 1-9): 8.1 mg/mm
effect on the development of isoproterenol-induced cardiac hypertrophy ([2]; up to 10 mg/kg): statistically significant effect
effect on cardiac hypertrophy induced by the TAC constriction (TAC-induced hypertrophy; 3 mg/kg): tendency to reverse the cardiac hypertrophy
Terminal LV + S/TL Ratio (mean) (TAC ratio) (TAC-induced hypertrophy; 3 mg/kg oral twice/day): 5.8 mg/mm
effect on cardiac hypertrophy induced by the TAC constriction (TAC-induced hypertrophy; 10 mg/kg): tendency to reverse the cardiac hypertrophy
Terminal LV + S/TL Ratio (mean) (TAC ratio) (TAC-induced hypertrophy; 10 mg/kg oral twice/day): 5.8 mg/mm
difference in TAC ratio between the sham group and the treated groups (TAC-induced hypertrophy; sham vs compound groups): not statistically significant

CN1C(=O)c2c(nn(Cc3ccc(S(N)(=O)=O)cc3)c2Nc2ccc(F)cc2)N2CC(C)(C)N=C12 [Example 7, 4-((3-((4-fluorophenyl)amino)-5,7,7-trimethyl-4-oxo-4,5,7,8-tetrahydro-2H-imidazo[1,2-a]pyrazolo[4,3-e]pyrimidin-2-yl)methyl)benzenesulfonamide]
Kp [1]: < 0.05

CCCCc1nc(Cl)c(CO)n1Cc1ccc(-c2ccccc2-c2nn[nH]n2)cc1 [Losartan, Losartan potassium, reference compound]
Terminal LV + S/TL Ratio (mean) (TAC ratio) (TAC-induced hypertrophy; 40 mg/kg (as printed in the results table) oral once/day): 6.2 mg/mm
difference in TAC ratio between the vehicle group and the treated group (TAC-induced hypertrophy; vehicle vs Losartan group): not statistically significant
